Measurements: patent publication US12187759B2, “TLR7 agonists” (Primmune Therapeutics, Inc., priority 2019, dated 2025)

System: hPBMCs (Human Peripheral Blood Mononuclear Cells)
Assay: Induction of interferon-α in hPBMCs in vitro
Type: cell-based
Method in brief: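 Peripheral blood mononuclear cells from healthy human donors were dispensed into replicate culture wells at 1.0-7.5×10^6 cells per well. They were exposed to test compound for 24 hours at 37° C. in humidified 5% CO2, with untreated wells as controls. Secreted interferon-α was quantified with a multisubtype ELISA or as IFNα2a in a luminex panel. MEC was defined as the lowest concentration giving a significant rise above baseline, generally at least 80 pg/ml. IFNmax was the highest IFN level seen at any tested concentration.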

Structure (SMILES): CC[C@H](O)[C@@H]1C[C@@H](O)[C@H](n2c(=O)sc3c(=O)[nH]c(N)nc32)O1 [Compound A, 5-amino-3-((2R,3R,5S)-3-hydroxy-5-((S)-1-hydroxypropyl)tetrahydrofuran-2-yl)thiazolo[4,5-d]pyrimidine-2,7(3H,6H)-dione, reference compound]
- Donor 1 MEC (Donor 1, interferon-α production): ≤3.125 µM
- Donor 1 IFNmax (Donor 1, maximum IFN at any concentration of the evaluated range): 1061 pg/mL
- Donor 2 MEC (Donor 2, interferon-α production): ≤3.125 µM
- Donor 2 IFNmax (Donor 2, maximum IFN at any concentration of the evaluated range): 481 pg/mL
- Donor 3 MEC (Donor 3, interferon-α production): ≤3.125 µM
- Donor 3 IFNmax (Donor 3, maximum IFN at any concentration of the evaluated range): 2243 pg/mL
- Emax (Homo sapiens, PBMC, 24 h, peak IFNα2a as percentage of peak response of standard 2-Amino-7-(cyclopropylmethyl)-9-B-D-xylofuranosyl-7,9-dihydro-1H-purine-6,8-dione, averaged across donors, read-out: IFNrmax, Relative Maximal IFNα2a Production (%)): 103%
- minimal effective concentration (Homo sapiens, PBMC, minimal effective concentration for interferon-α production (generally at least 80 pg/ml above baseline), geometric mean across at least three donors, 24 hours, read-out: Weighted MEC): ≤ 3.1 µM
